The source of these data is article PMC7848139, “Novel Hybrid CHC from β-carboline and N-Hydroxyacrylamide Overcomes Drug-Resistant Hepatocellular Carcinoma by Promoting Apoptosis, DNA Damage, and Cell Cycle Arrest” (Frontiers in Pharmacology, 2021).

Assay [1] concerns Bax, Bcl-2, caspase-3 in Bel7402/5-FU cells. The assay can be described thus: Western blotting of apoptosis-related proteins. Type of assay: cell-based, human. The following applies: 72 h. How it is done: The HDAC, autophagy and apoptosis-related proteins were analyzed according to Western blotting assay. […]. And anti-Ac-histone H3, anti-Ac-histone H4, anti-Ac-α-tubulin, anti-Bax, anti-Bcl2, anti-H2AX (S139ph), anti-CDK1, anti-cyclin B, and anti-β-actin antibodies (Cell Signaling Technology, MA, United States) detected the target proteins after membranes were blocked with 5% fat-free milk. The peroxidase-conjugated secondary antibodies detected the bound antibodies for 1 h and visualized according to improved chemiluminescent reagent.
[…]; (B) The relative expression levels of each protein (Bax, Bcl-2, pro-caspase-3, and cleaved caspase-3) were quantitatively analyzed using β-actin as reference. The data are presented as the mean ± SD of three separated assays. *p < 0.01 vs. control.

The subject of assay [2] is SUMM-7721, Bel7402, Huh7, HCT116 and Bel7402/5FU cells. The assay can be described thus: MTT antiproliferative assay, range over the five cancer cell lines. The following applies: Homo sapiens; range over drug-sensitive SUMM-7721, Bel7402, Huh7, HCT116 and drug-resistant Bel7402/5FU cells. Type of assay: cell-based. How it is done:
(§1) Briefly, appropriate cells (1 × 10^4 cells/mL) were placed into 96-well plates in 100 μL of DMEM medium overnight. Then adding 100 μL of evaluated compounds into individual well for 72 h while 0.1% DMSO aqueous solution was treated as the negative control. After incubation with 30 μl MTT (5 mg/mL) for 4 h in all well, and ELISA plate reader measured absorbance of each well at 570 nm. Then calculating cytotoxicity effect of evaluated compounds through the formula: Cell inhibitory percentage (%) = (1−OD of treatment group/OD of control) × 100%.

Assay [3] has as its system SMMC-7721. Briefly: MTT antiproliferative assay, SMMC-7721. Type of assay: cell-based. The following applies: Homo sapiens, 72 h, mean ± SD of three experiments, read-out: In vitro antiproliferative activity (IC50) SMMC-7721. On the procedure:
as §1

The target of assay [4] is T1, recombinant human HDAC1 (Homo sapiens, UniProt Q13547).
T1 construct: purchased Enzo Life Sciences Inc
T1 sequence (Q13547 whole entry): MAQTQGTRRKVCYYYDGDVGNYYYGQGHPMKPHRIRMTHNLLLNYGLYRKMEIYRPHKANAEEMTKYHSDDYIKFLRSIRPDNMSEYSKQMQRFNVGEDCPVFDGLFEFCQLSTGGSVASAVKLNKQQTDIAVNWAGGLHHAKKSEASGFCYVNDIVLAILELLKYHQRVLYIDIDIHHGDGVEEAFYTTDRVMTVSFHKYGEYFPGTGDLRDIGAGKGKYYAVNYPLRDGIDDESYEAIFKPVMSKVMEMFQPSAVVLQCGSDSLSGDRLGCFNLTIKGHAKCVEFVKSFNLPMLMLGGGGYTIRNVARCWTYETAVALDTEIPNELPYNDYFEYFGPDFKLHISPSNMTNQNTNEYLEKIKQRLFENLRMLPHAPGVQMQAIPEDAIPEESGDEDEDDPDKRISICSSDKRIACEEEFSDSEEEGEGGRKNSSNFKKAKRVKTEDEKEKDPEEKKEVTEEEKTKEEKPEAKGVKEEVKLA
The assay can be described thus: HDAC fluorimetric assay, HDAC1. Type of assay: biochemical. How it is done: (§2) The assay was conducted according to the HDAC1/3/6/8 assay kit (Enzo Life Sciences Inc.). Each different concentrations of evaluated compounds were, respectively, incubated with each HDAC1/3/6/8 at coupling of corresponding HDAC substrate (Boc-Lys (Ac)-AMC) at 37°C for 60 min. Then stopping the reaction under adding lysine developer.

The subject of assay [5] is Bel7402. Briefly: MTT antiproliferative assay, Bel7402. The following applies: Homo sapiens, Bel-7402, 72 h, mean ± SD of three experiments, read-out: In vitro antiproliferative activity (IC50) Bel7402. The class given is cell-based. On the procedure:
as §1

Assay [6] has as its system Bel7402/5-FU. Briefly: MTT antiproliferative assay, Bel7402/5-FU. Type of assay: cell-based. The conditions noted are these: Homo sapiens, drug-resistant HCC cells, 72 h, mean ± SD of three experiments, read-out: In vitro antiproliferative activity (IC50) Bel7402/5-FU. How it is done:
as §1

Assay [7] concerns the target T2, recombinant human HDAC6 (Homo sapiens, UniProt Q9UBN7).
T2 construct: purchased Enzo Life Sciences Inc
T2 sequence (Q9UBN7 1-1215): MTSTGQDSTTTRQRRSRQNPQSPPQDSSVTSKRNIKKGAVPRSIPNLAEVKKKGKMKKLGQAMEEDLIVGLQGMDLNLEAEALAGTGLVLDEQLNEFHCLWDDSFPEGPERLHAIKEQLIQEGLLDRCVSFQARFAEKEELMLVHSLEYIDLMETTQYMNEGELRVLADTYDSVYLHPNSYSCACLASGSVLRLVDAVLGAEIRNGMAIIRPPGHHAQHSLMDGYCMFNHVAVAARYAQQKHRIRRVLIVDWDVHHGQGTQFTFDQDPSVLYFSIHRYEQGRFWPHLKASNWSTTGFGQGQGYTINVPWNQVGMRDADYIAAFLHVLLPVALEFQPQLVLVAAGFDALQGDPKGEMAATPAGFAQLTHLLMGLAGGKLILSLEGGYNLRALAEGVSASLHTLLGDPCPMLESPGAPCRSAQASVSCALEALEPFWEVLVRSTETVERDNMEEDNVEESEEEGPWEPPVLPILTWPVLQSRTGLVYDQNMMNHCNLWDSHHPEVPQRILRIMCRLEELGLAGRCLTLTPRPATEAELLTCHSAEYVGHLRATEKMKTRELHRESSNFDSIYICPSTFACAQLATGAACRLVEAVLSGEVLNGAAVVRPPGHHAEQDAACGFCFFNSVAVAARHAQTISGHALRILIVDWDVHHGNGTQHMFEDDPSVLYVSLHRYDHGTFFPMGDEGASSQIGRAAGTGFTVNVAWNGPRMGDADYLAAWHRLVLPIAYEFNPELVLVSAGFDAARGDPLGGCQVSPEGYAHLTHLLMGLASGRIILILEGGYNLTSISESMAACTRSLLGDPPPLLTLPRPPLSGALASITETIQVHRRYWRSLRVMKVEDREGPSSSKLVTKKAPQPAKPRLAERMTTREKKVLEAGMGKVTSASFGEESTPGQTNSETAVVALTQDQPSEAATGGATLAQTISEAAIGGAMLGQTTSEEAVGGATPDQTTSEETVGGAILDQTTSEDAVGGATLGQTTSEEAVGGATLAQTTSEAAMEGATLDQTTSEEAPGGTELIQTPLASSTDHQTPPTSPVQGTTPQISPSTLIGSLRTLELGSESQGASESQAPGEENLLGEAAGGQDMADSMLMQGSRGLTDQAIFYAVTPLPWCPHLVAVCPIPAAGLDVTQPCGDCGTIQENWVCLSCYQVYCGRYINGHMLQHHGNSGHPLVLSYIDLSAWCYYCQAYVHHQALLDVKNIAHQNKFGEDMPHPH
Briefly: HDAC fluorimetric assay, HDAC6. The class given is biochemical. How it is done:
as §2

Assay [8] deals with CT-DNA. The assay can be described thus: UV-visible spectroscopy titrations with CT DNA. Type of assay: binding, calf. The conditions noted are these: 20 μM compound, equal increments of CT-DNA, 25°C. How it is done: The ultraviolet spectrophotometer (UV2500, Shimadzu, Tokyo, Japan) recorded UV–visible spectroscopy under titrations at 25°C. Tris buffer (5 mM) was used to prepare Stock solutions of CT DNA (20 μM, calf thymus DNA) comprising ideal structure of double stranded DNA. Dissolving synthesized derivative in 1:1000 DMSO/Milli Q water to prepare stock solutions of them (20 μM). UV–visible absorption titrations were carried out with addition of 100 μl CT DNA solution to 4 ml solution of tested compound in quartz cuvette each time interval. Until the absorption band of complex containing synthesized derivative and CT DNA kept at a stable wavelength after adding CT DNA successfully for five times, titrations were finished. Finally, spectrophotometer noted the absorption spectra (250–500 nm).
FIGURE 7 UV-visible absorption spectra of CHC after adding equal amounts of CT DNA. Arrows indicate changes in absorbance with increasing concentrations of DNA [CHC] = 20 μM.

Molecules are shown by their SMILES.

As to `CN(C)c1ccc(-c2nc(C(=O)NCc3ccc(/C=C/C(=O)NO)cc3)cc3c2[nH]c2ccccc23)cc1` [CHC, (E)-N-(4-(3-(hydroxyamino)-3-oxoprop-1-en-1-yl)benzyl)-1-(4-dimethylaminophenyl)-9H-pyrido [3,4-b]indole-3-carboxamide], in assay [1], the “expression of Bax, Bcl-2 and cleavage of caspase-3” value was “significantly upregulate the expression of Bax and cleavage of caspase-3 and downregulate the expression of Bcl-2”. The IC50 was 1.84 to 3.27 µM in assay [2]; 3.27 ± 0.36 µM in assay [3]; 0.029 ± 0.003 µM in assay [4] (mean ± SD of three experiments); 1.84 ± 0.23 µM in assay [5]; 2.17 ± 0.35 µM in assay [6]; 0.0076 ± 0.001 µM in assay [7] (mean ± SD of three experiments). Also, in assay [4] (compared with SAHA), the “IC50 on HDAC1 relative to SAHA” value is on record as “approximately five-fold lower”. Further, the “fold lower IC50 on HDAC1 than on HDAC3” value in assay [4] (selectivity HDAC1 over HDAC3) came out at 4 fold. Further, the “IC50 on HDAC6 relative to SAHA” value in assay [7] (compared with SAHA) is given as “eight-fold lower”. Further, the “fold lower IC50 on HDAC6 than on HDAC3” value in assay [7] (selectivity HDAC6 over HDAC3) is on record as 18 fold. In assay [8], the “change of UV-visible absorption upon adding CT-DNA” value is “absorption at all wavelengths gradually decreased”.
